Measurements taken from patent US20150167016A1, “Plants Tolerant to HPPD Inhibitor Herbicides” (Bayer CropScience AG, priority 2009, published 2015).
Where “and” joins values, the source holds several entries; their conditions need not be identical. Identical values can stand only once. Like-named read-outs stand apart in the source and are kept apart here.

What was measured:
(UniProt Q6KZ98) = experiment: biochemical; format: biochemical, Picrophilus torridus; conditions: read-out: pI50 (converted)
[1] = system: Picrophilus torridus HPPD "SEQ ID No. 5"; experiment: biochemical; format: biochemical
[2] = system: T1 tobacco plants carrying FMP29e from Picrophilus torridus; experiment: Glasshouse response to bicyclopyrone, injury classes; format: in vivo, Nicotiana tabacum; conditions: 100 g Al/ha, 7 DAT
Source text: (§1) Seeds of wild type tobacco plants and T1 tobacco plants carrying the gene from Picrophilus torridus FMP29e coding for HPPD were sown on MS media (Murashige and Skoog […]) supplemented with […] kanamycin. After 4 weeks, rooted green plantlets were transferred to soil and grown for 3 weeks in the glasshouse as described above then sprayed with a mixture containing bicyclopyrone (100 g Al/ha), ammonium sulfate and methyl ester raps oil. The plants were classified in two categories based on the phenotype developed in response to the herbicide seven days after the treatment. […] In this case, only plants containing at least one T-DNA were exposed to the herbicidal treatment.

Wild type tobacco plants [3] = experiment: as above; format: in vivo, Nicotiana tabacum; conditions: WT; 100 g Al/ha, 7 DAT
Source text: as §1

[4] = system: T1 tobacco plants containing Arabidopsis HPPD; experiment: Glasshouse spray trial, herbicidal damage; format: in vivo, Nicotiana tabacum; conditions: not selected for transgene
Procedure: (§2) T0 Tobacco plants containing either the gene from Arabidopsis coding for HPPD or the gene FMP29e from Picrophilus torridus coding for FMP29 HPPD, mentioned above (Example3), were transferred to the glasshouse (28/20° C.), to develop further and produce seeds. Those seeds were harvested and put on soil (ED73 mixed with sand and osmocote Pro) to germinate in the glasshouse (28/20° C.). Three to four weeks later, plantlets were transferred to single pots containing the soil mentioned above. Two weeks later, plants of a size 4-6 cm diameter were sprayed with either • tembotrione at 100 gAl/ha prepared from a WP20 (wettable powder 20%) formulation supplemented with ammonium sulfate and methyl ester raps oil, or • isoxaflutole at 100 gAl/ha prepared from a WP20 formulation supplemented with ammonium sulfate and methyl ester raps oil, or • bicyclopyrone at 100 gAl/ha prepared from a WP20 formulation supplemented with ammonium sulfate and methyl ester raps oil, or • “blind formulation” made from a WP20 formulation without active ingredient (Al) supplemented with ammonium sulfate and methyl ester raps oil, and were then transferred to a growth chamber with adequate light conditions (20000 Lux).
(§3) Table 5: Wild type tobacco plants (A) and Ti populations of tobacco events containing alternatively, the expression cassettes described above having the promoter CaMV 35S, the sequence coding for OTP and the sequence coding for Arabidopsis HPPD (B) or the promoter CaMV35S, the sequence encoding OTP, and the sequence FMP29e coding for the HPPD FMP29 (C). Assessments of herbicidal damage at 7 days after application (DAT) per spray with 100 g Al/ha of tembotrione or isoxaflutole supplemented with ammonium sulfate and methyl ester raps oil. […] Plants belonging to categories (B) and (C) have not been selected for the presence of the respective transgene prior to the herbicide application.

[5] = system: T1 tobacco plants containing FMP29e (Picrophilus torridus HPPD FMP29); experiment: Glasshouse spray trial, herbicidal damage; format: in vivo, Nicotiana tabacum; conditions: for tolerance of plants containing FMP29e gene: 7 DAT, 100 g Al/ha spray; for % injury, 7DAT, 100 g Al/ha: FMP29e, not selected for transgene
Procedure: as §2, §3

Wild type tobacco plants [6] = experiment: Glasshouse spray trial, herbicidal damage; format: in vivo, Nicotiana tabacum; conditions: individual plants, 100% = same bleaching as wild type
Procedure: as §2, §3

[7] = target: T1, Arabidopsis thaliana HPPD "SEQ ID No. 10" (Arabidopsis thaliana, UniProt P93836); experiment: HPPD activity in presence of HPPD inhibitors (spectrophotometric assay of WO 2009/144079); format: biochemical
T1 construct: made in house; host or cells: E. coli K-12 BL21 (pQE30-AtHPPD)
T1 sequence (P93836 with tags, fused parts or gaps): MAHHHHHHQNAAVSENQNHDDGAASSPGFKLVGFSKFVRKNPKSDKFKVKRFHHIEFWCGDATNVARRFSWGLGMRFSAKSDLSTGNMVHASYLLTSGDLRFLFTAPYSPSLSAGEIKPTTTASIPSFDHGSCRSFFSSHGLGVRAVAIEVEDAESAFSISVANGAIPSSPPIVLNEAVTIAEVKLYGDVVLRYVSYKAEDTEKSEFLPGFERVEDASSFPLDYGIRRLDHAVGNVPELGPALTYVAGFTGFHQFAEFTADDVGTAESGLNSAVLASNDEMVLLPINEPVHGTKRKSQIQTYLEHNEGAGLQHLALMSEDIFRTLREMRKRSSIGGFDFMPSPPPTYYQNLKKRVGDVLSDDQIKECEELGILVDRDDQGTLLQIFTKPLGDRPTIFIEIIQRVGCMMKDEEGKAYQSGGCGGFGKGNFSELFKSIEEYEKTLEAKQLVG

[8] = system: tobacco calli containing HPPD SEQ ID No. 11 (Arabidopsis thaliana); experiment: Rooting of calli on media with tembotrione; format: cell-based, Nicotiana tabacum; conditions: calli containing SEQ ID No. 11; 6 to 12 weeks
Procedure: (§4) The leaf disks were co-cultivated for 2 days with Agrobacterium tumefaciens cells containing either the binary vector FMP29ebv or AtHPPDbv. Then the leaf disks were transferred to a media allowing the regeneration of shoots for 6 weeks on MS (Musharige and Skoog, (1962), Physiol Plant 15(3): 473-497) media supplemented with BAP (1 mg/mL; Benzylaminopurine), carbenicillin (250 mg/mL), cefotaxine (250 mg/mL), kanamycin (75 mg/mL) and tembotrione (10^−6 M) Regenerated calli were transferred on media to induce the development of roots for 6 to 12 weeks: MS (½), supplemented with carbenicillin (250 mg/mL), cefotaxine (250 mg/mL), kanamycin (75 mg/mL), and tembotrione (10^−6 M).
(§5) Regenerated shoot calli from a cell transformed with a nucleic acid sequence encoding an HPPD comprising SEQ ID No. 11 (Arabidopsis thaliana) or SEQ ID No. 7 (Picrophilus torridus) were transferred to a media inducing root growth which media was further supplemented with the HPPD inhibitor tembotrione for 6 to 12 weeks.

[9] = system: tobacco calli containing HPPD SEQ ID No. 7 (Picrophilus torridus); experiment: Rooting of calli on media with tembotrione; format: cell-based, Nicotiana tabacum; conditions: calli containing SEQ ID No. 7, 6 to 12 weeks
Procedure: as §4, §5

[10] = SEQ ID No. 5, 5.0 × 10^−6M inhibitor
[11] = FMP29e line 121, plants with at least one T-DNA
[12] = SEQ ID No. 5, 2 mM HPP, 3 minutes incubation, >> = far higher than indicated, not calculable in tested range 2.5 × 10^−6 to 2.5 × 10^−4M

## Cc1ccc(C(=O)COc2c(C(=O)c3ccc(Cl)c(C)c3Cl)c(C)nn2C)cc1 [Benzofenap]
(UniProt Q6KZ98)
  IC50: 15.8 µM
[1]; [10]
  percentage of inhibition compared to the activity measured in absence of the inhibitor: 44%

## COCCOCc1nc(C(F)(F)F)ccc1C(=O)C1=C(O)C2CCC(C2)C1=O (centres unmarked) [Bicyclopyrone, 4-hydroxy-3-[[2-[(2-methoxyethoxy)methyl]-6-(trifluoromethyl)-3-pyridinyl]carbonyl]bicyclo[3.2.1]oct-3-en-2-one]
(UniProt Q6KZ98)
  IC50: 398 µM
[1]; [10]
  percentage of inhibition compared to the activity measured in absence of the inhibitor: 24%
[2]
  tolerance of plants containing the HPPD FMP29: displayed tolerance
[2]; FMP29e line 121
  % of tolerant plant: 2%
[2]; [11]
  Class I (number of plants, injury: 0-30%): 38
  Class II (number of plants, injury: 31-100%): 11
Wild type tobacco plants [3]
  % of tolerant plant: 0%
  Class I (number of plants, injury: 0-30%): 0
  Class II (number of plants, injury: 31-100%): 12

## CS(=O)(=O)c1cc(C(F)(F)F)ccc1C(=O)C(C#N)C(=O)C1CC1 (centres unmarked) [Diketonitrile, 2-cyano-3-cyclopropyl-1-(2-methylsulphonyl-4-trifluoromethylphenyl)-propane-1,3-dione]
(UniProt Q6KZ98)
  IC50: 12.6 µM
[1]; [10]
  percentage of inhibition compared to the activity measured in absence of the inhibitor: 26%

## CS(=O)(=O)c1cc(C(F)(F)F)ccc1C(=O)c1cnoc1C1CC1 [Isoxaflutole, (5-cyclopropyl-4-isoxazolyl)[2-(methylsulfonyl)-4-(trifluoromethyl)phenyl]methanone]
[4]; line 252, individual T1 plants
  % injury, 7DAT, 100 g Al/ha: 30% and 70% and 95% and 98% (2×) and 99% (4×) and 100% (4×)
[4]; line 258, individual T1 plants
  % injury, 7DAT, 100 g Al/ha: 100%
[4]; line 327, individual T1 plants
  % injury, 7DAT, 100 g Al/ha: 10% and 20% and 60% (2×) and 70% and 80% and 95% and 98% and 99% and 100% (6×)
[5]
  tolerance of plants containing FMP29e gene: far more tolerant
[5]; line 115, individual T1 plants
  % injury, 7DAT, 100 g Al/ha: 0% and 2% and 5% and 10% and 15% and 30% (2×) and 40%
[5]; line 292, individual T1 plants
  % injury, 7DAT, 100 g Al/ha: 20% and 30% and 40%
Wild type tobacco plants [6]
  % injury, 7DAT, 100 g Al/ha: 98% and 99% (2×) and 100% (4×)

## CS(=O)(=O)c1ccc(C(=O)C2C(=O)CCCC2=O)c([N+](=O)[O-])c1 [Mesotrione, 2-[4-(methylsulfonyl)-2-nitrobenzoyl]-1,3-cyclohexanedione]
[1]
  percentage of inhibition compared to the activity measured in absence of the inhibitor: 84%

## Cc1nn(C)c(O)c1C(=O)c1ccc(C(F)(F)F)cc1S(C)(=O)=O [Pyrasulfotole]
[7]; 2 mM HPP, 3 minutes incubation, >> = far higher than indicated, not calculable in tested range 2.5 × 10^−6 to 2.5 × 10^−4M
  pI50: 5.4
[7]; 5.0 × 10^−6M inhibitor
  percentage of inhibition compared to the activity measured in absence of the inhibitor: 69%
[1]; [12]
  pI50: 4.0
[1]; [10]
  percentage of inhibition compared to the activity measured in absence of the inhibitor: 7%

## CS(=O)(=O)c1ccc(C(=O)C2C(=O)CCCC2=O)c(Cl)c1 [Sulcotrione, 2-[2-chloro-4-(methylsulfonyl)benzoyl]-1,3-cyclohexanedione]
[1]
  pI50: >5.6
  percentage of inhibition compared to the activity measured in absence of the inhibitor: 92%

## CS(=O)(=O)c1ccc(C(=O)C2C(=O)CCCC2=O)c(Cl)c1COCC1CCCO1 (centres unmarked) [Tefuryltrione, 2-[2-chloro-4-(methylsulfonyl)-3-[[(tetrahydro-2-furanyl)methoxy]methyl]benzoyl]-1,3-cyclohexanedione]
(UniProt Q6KZ98)
  IC50: 3.16 µM
[1]; [10]
  percentage of inhibition compared to the activity measured in absence of the inhibitor: 87. %

## CS(=O)(=O)c1ccc(C(=O)C2C(=O)CCCC2=O)c(Cl)c1COCC(F)(F)F [Tembotrione, 2-[2-chloro-4-(methylsulfonyl)-3-[(2,2,2,-tri-fluoroethoxy)methyl]benzoyl]-1,3-cyclo-hexanedione]
[1]; [12]
  pI50: 5.5
[1]; [10]
  percentage of inhibition compared to the activity measured in absence of the inhibitor: 58%
[8]
  root growth on media supplemented with tembotrione: On none of the events
[9]
  root growth on media supplemented with tembotrione: developed numerous and healthy roots
[9]; 10^−6M
  % Elongation & rooting on 10^−6M tembotrione: 65%
[4]; line 252, individual T1 plants
  % injury, 7DAT, 100 g Al/ha: 30% and 40% (3×) and 50% and 60% (2×) and 70% (2×) and 75% (3×) and 80%
[4]; line 258, individual T1 plants
  % injury, 7DAT, 100 g Al/ha: 100% (5×) and 30%
[4]; line 327, individual T1 plants
  % injury, 7DAT, 100 g Al/ha: 10% and 20% (2×) and 40% and 50% and 0% and 70% (5×) and 80% (4×)
[5]
  tolerance of plants containing FMP29e gene: far more tolerant
[5]; line 115, individual T1 plants
  % injury, 7DAT, 100 g Al/ha: 30% and 40% and 50% (3×)
[5]; line 292, individual T1 plants
  % injury, 7DAT, 100 g Al/ha: 20% (2×) and 30% and 40% (2×)
Wild type tobacco plants [6]
  % injury, 7DAT, 100 g Al/ha: 100%
